Measurements from ChEMBL document CHEMBL1150739, “Plant antitumor agents, 26. Isolation, structure, and antitumor activity of alkaloids from Anopterus glandulosus” (1987).
In brackets after ≈: the same amount, converted by molar mass.

Assays:
Type in all cases: functional
[1] = system: P388; assay: In vivo antitumor activity against mouse P388 cells at 13 mg/kg relative to control
[2] = system: KB; assay: Cytotoxicity against human KB cells; conditions: read-out: ED50 (the source's name)
[3] = system: P388; assay: In vivo antitumor activity against mouse P388 cells at 4.4 mg/kg relative to control
[4] = system: P388; assay: In vivo antitumor activity against mouse P388 cells at 3.5 mg/kg relative to control
[5] = system: P388; assay: In vivo antitumor activity against mouse P388 cells at 1.5 mg/kg relative to control
[6] = system: P388; assay: In vivo antitumor activity against mouse P388 cells at 6 mg/kg relative to control

SMILES	EC50 [2] [µg/mL]	also measured
C=C1C[C@@]23C[C@H](O)[C@]4(O)[C@@]5(C)C[C@H](O)C[C@@]46[C@@H]2[C@H](OC(=O)/C(C)=C/C)[C@H](OC(=O)/C(C)=C/C)[C@@H]1[C@H]3[C@H]6N(C)C5 [ANOPTERINE]	0.05 (≈ 0.0923 µM)	T/C [1]: 122%
C=C1C[C@]23[C@H]4[C@H]1[C@@H](OC(=O)/C(C)=C/C)[C@@H](OC(=O)/C(C)=C/C)[C@H]2[C@@]12C[C@@H](O)C[C@@](C)(CN(C)[C@H]41)[C@@]2(O)[C@@H](O)[C@@H]3O	0.001 (≈ 0.00179 µM)	T/C [3]: 140%
C=C1C[C@]23[C@H]4[C@H]1[C@@H](OC(=O)/C(C)=C/C)[C@@H](OC(=O)/C(C)=C/CO)[C@H]2[C@@]12C[C@@H](O)C[C@@](C)(CN(C)[C@H]41)[C@@]2(O)[C@@H](O)[C@@H]3O	0.05 (≈ 0.0872 µM)	T/C [4]: 120%
C=C1C[C@]23[C@H]4[C@H]1[C@@H](OC(=O)/C(C)=C/C)[C@@H](OC(=O)c1ccccc1)[C@H]2[C@@]12C[C@@H](O)C[C@@](C)(CN(C)[C@H]41)[C@@]2(O)[C@@H](O)[C@@H]3O	0.001 (≈ 0.00173 µM)	T/C [5]: 125%
C=C1C[C@@]23C[C@H](O)[C@]4(O)[C@@]5(C)C[C@H](O)C[C@@]46[C@@H]2[C@H](O)[C@H](OC(=O)/C(C)=C/C)[C@@H]1[C@H]3[C@H]6N(C)C5	1 (≈ 2.18 µM)	T/C [6]: 127%
